Assay results from patent US20210254056A1, “IDENTIFICATION AND TARGETED MODULATION OF GENE SIGNALING NETWORKS” (CAMP4 THERAPEUTICS CORPORATION, priority 2017, published 2021).

Test system: hepatocytes
Assay: RNA-seq of hepatocytes treated with Phase III failure compounds
Details: for Number (#) of genes having significantly changed expression: Phase III failure compounds, significance: FPKM≥0.5, log 2(fold-change)≥1, q-value≥0.05 (so in the source); for B2M expression, RNA-seq result: gene B2M; for B9D2 expression, RNA-seq result: gene B9D2; for BAAT expression, RNA-seq result: gene BAAT; for BBOX1 expression, RNA-seq result: gene BBOX1; for BBS10 expression, RNA-seq result: gene BBS10; for BCHE expression, RNA-seq result: gene BCHE; for BCKDHB expression, RNA-seq result: gene BCKDHB; for BCKDK expression, RNA-seq result: gene BCKDK; for BCO1 expression, RNA-seq result: gene BCO1; for BCR expression, RNA-seq result: gene BCR; for BLNK expression, RNA-seq result: gene BLNK; for BLOC1S3 expression, RNA-seq result: gene BLOC1S3; for BMPR1A expression, RNA-seq result: gene BMPR1A; for BRAF expression, RNA-seq result: gene BRAF; for BSCL2 expression, RNA-seq result: gene BSCL2; for BTD expression, RNA-seq result: gene BTD; for C4A expression, RNA-seq result: gene C4A; for C9 expression, RNA-seq result: gene C9; for C10orf10 expression, RNA-seq result: gene C10orf10; for C10orf11 expression, RNA-seq result: gene C10orf11; for C15orf41 expression, RNA-seq result: gene C15orf41; for CA2 expression, RNA-seq result: gene CA2; for CA5A expression, RNA-seq result: gene CA5A; for CA12 expression, RNA-seq result: gene CA12; for CAV1 expression, RNA-seq result: gene CAV1; for CCND1 expression, RNA-seq result: gene CCND1; for CD46 expression, RNA-seq result: gene CD46; for CD81 expression, RNA-seq result: gene CD81; for CD320 expression, RNA-seq result: gene CD320; for CDAN1 expression, RNA-seq result: gene CDAN1; for CDH1 expression, RNA-seq result: gene CDH1; for CEP19 expression, RNA-seq result: gene CEP19; for CEP83 expression, RNA-seq result: gene CEP83; for CEP164 expression, RNA-seq result: gene CEP164; for CEP290 expression, RNA-seq result: gene CEP290; for CFB expression, RNA-seq result: gene CFB; for CFHR2 expression, RNA-seq result: gene CFHR2; for CHRM3 expression, RNA-seq result: gene CHRM3; for CIDEC expression, RNA-seq result: gene CIDEC; for CLDN1 expression, RNA-seq result: gene CLDN1; for COG1 expression, RNA-seq result: gene COG1
Description: RNA-seq was performed to determine the effects of the compounds on hepatocytes.
Significance was determined by the criteria of FPKM≥0.5, a log 2(fold-change)≥1, and a […].

`C=CC(=O)Nc1cccc(Nc2nc(Nc3ccc(N4CCN(C(C)=O)CC4)cc3OC)ncc2C(F)(F)F)c1` [CO-1686 (Rociletinib), Rociletinib] was tested, and the “Number (#) of genes having significantly changed expression” value (RNA-seq, hepatocytes) was 391, the “B2M expression, RNA-seq result” value (hepatocytes) was −0.08 and the “B9D2 expression, RNA-seq result” value (hepatocytes) was −0.29. The “BAAT expression, RNA-seq result” value (hepatocytes) was 0.22, the “BBOX1 expression, RNA-seq result” value (hepatocytes) was −0.45 and the “BBS10 expression, RNA-seq result” value (hepatocytes) was −0.28. The “BCHE expression, RNA-seq result” value (hepatocytes) was −0.79, the “BCKDHB expression, RNA-seq result” value (hepatocytes) was −0.38 and the “BCKDK expression, RNA-seq result” value (hepatocytes) was −0.45. For the same compound, the “BCO1 expression, RNA-seq result” value (hepatocytes) was −0.53, the “BCR expression, RNA-seq result” value (hepatocytes) was −0.26 and the “BLNK expression, RNA-seq result” value (hepatocytes) was 0.75. For the same compound, the “BLOC1S3 expression, RNA-seq result” value (hepatocytes) was 0.76, the “BMPR1A expression, RNA-seq result” value (hepatocytes) was 0.07 and the “BRAF expression, RNA-seq result” value (hepatocytes) was 0.32. The “BSCL2 expression, RNA-seq result” value (hepatocytes) was −0.58, the “BTD expression, RNA-seq result” value (hepatocytes) was 0.25 and the “C4A expression, RNA-seq result” value (hepatocytes) was 0.16. The “C9 expression, RNA-seq result” value (hepatocytes) was −0.21, the “C10orf10 expression, RNA-seq result” value (hepatocytes) was 0.81 and the “C10orf11 expression, RNA-seq result” value (hepatocytes) was 0.1. For the same compound, the “C15orf41 expression, RNA-seq result” value (hepatocytes) was 0.03, the “CA2 expression, RNA-seq result” value (hepatocytes) was 0.48 and the “CA5A expression, RNA-seq result” value (hepatocytes) was −0.02. For the same compound, the “CA12 expression, RNA-seq result” value (hepatocytes) was 0.59, the “CAV1 expression, RNA-seq result” value (hepatocytes) was −0.47 and the “CCND1 expression, RNA-seq result” value (hepatocytes) was −2.24. The “CD46 expression, RNA-seq result” value (hepatocytes) was −0.02, the “CD81 expression, RNA-seq result” value (hepatocytes) was 0.02 and the “CD320 expression, RNA-seq result” value (hepatocytes) was −0.58. For the same compound, the “CDAN1 expression, RNA-seq result” value (hepatocytes) was 0.02, the “CDH1 expression, RNA-seq result” value (hepatocytes) was −0.25 and the “CEP19 expression, RNA-seq result” value (hepatocytes) was −0.43. For the same compound, the “CEP83 expression, RNA-seq result” value (hepatocytes) was −0.13, the “CEP164 expression, RNA-seq result” value (hepatocytes) was −0.32 and the “CEP290 expression, RNA-seq result” value (hepatocytes) was −0.17. For the same compound, the “CFB expression, RNA-seq result” value (hepatocytes) was 0.17, the “CFHR2 expression, RNA-seq result” value (hepatocytes) was −0.16 and the “CHRM3 expression, RNA-seq result” value (hepatocytes) was −0.14. For the same compound, the “CIDEC expression, RNA-seq result” value (hepatocytes) was 0.24, the “CLDN1 expression, RNA-seq result” value (hepatocytes) was −0.71 and the “COG1 expression, RNA-seq result” value (hepatocytes) was −0.28.
For `Cl.OC[C@H]1NC[C@H](O)[C@@H](O)[C@H]1O` [Deoxygalactonojirimycin hydrochloride], the “significant changes in gene expression” value (RNA-seq of Table 36, FPKM≥0.5, log 2(fold-change)≥1, q-value≤0.05) was “not observed to cause any significant changes in gene expression” and the “significant modulation of expression of any of the genes analyzed” value (RNA-seq, p≤0.05, hepatocytes) was “not observed to significantly modulate expression”.
In the case of `CC(C)[C@H](O)C(=O)N[C@@H](C)C(=O)N[C@@H]1C(=O)N(C)CCc2ccccc21` [Semagacestat], the “Number (#) of genes having significantly changed expression” value (RNA-seq, hepatocytes) is reported as 9, the “significant modulation of expression of disease genes” value (RNA-seq, q≤0.05, hepatocytes, genes in the value or listed in the block) is reported as “significantly (q≤0.05) modulate expression of CYP3A4” and the “B2M expression, RNA-seq result” value (hepatocytes) is reported as −0.06. For the same compound, the “B9D2 expression, RNA-seq result” value (hepatocytes) was 0.10, the “BAAT expression, RNA-seq result” value (hepatocytes) was 0.02 and the “BBOX1 expression, RNA-seq result” value (hepatocytes) was −0.39. The “BBS10 expression, RNA-seq result” value (hepatocytes) was −0.12, the “BCHE expression, RNA-seq result” value (hepatocytes) was −0.07 and the “BCKDHB expression, RNA-seq result” value (hepatocytes) was 0.07. The “BCKDK expression, RNA-seq result” value (hepatocytes) was 0.00, the “BCO1 expression, RNA-seq result” value (hepatocytes) was −0.09 and the “BCR expression, RNA-seq result” value (hepatocytes) was −0.04. For the same compound, the “BLNK expression, RNA-seq result” value (hepatocytes) was −0.03, the “BLOC1S3 expression, RNA-seq result” value (hepatocytes) was −0.02 and the “BMPR1A expression, RNA-seq result” value (hepatocytes) was 0.01. For the same compound, the “BRAF expression, RNA-seq result” value (hepatocytes) was 0.30, the “BSCL2 expression, RNA-seq result” value (hepatocytes) was 0.05 and the “BTD expression, RNA-seq result” value (hepatocytes) was −0.02. The “C4A expression, RNA-seq result” value (hepatocytes) was 0.16, the “C9 expression, RNA-seq result” value (hepatocytes) was −0.11 and the “C10orf10 expression, RNA-seq result” value (hepatocytes) was 0.01. For the same compound, the “C10orf11 expression, RNA-seq result” value (hepatocytes) was −0.27, the “C15orf41 expression, RNA-seq result” value (hepatocytes) was −0.28 and the “CA2 expression, RNA-seq result” value (hepatocytes) was 0.59. For the same compound, the “CA5A expression, RNA-seq result” value (hepatocytes) was −0.22, the “CA12 expression, RNA-seq result” value (hepatocytes) was 0.80 and the “CAV1 expression, RNA-seq result” value (hepatocytes) was −0.21. The “CCND1 expression, RNA-seq result” value (hepatocytes) was −0.14, the “CD46 expression, RNA-seq result” value (hepatocytes) was −0.05 and the “CD81 expression, RNA-seq result” value (hepatocytes) was −0.02. The “CD320 expression, RNA-seq result” value (hepatocytes) was −0.04, the “CDAN1 expression, RNA-seq result” value (hepatocytes) was −0.07 and the “CDH1 expression, RNA-seq result” value (hepatocytes) was 0.01. For the same compound, the “CEP19 expression, RNA-seq result” value (hepatocytes) was −0.22, the “CEP83 expression, RNA-seq result” value (hepatocytes) was −0.04 and the “CEP164 expression, RNA-seq result” value (hepatocytes) was −0.01. The “CEP290 expression, RNA-seq result” value (hepatocytes) was 0.06, the “CFB expression, RNA-seq result” value (hepatocytes) was −0.07 and the “CFHR2 expression, RNA-seq result” value (hepatocytes) was 0.01. The “CHRM3 expression, RNA-seq result” value (hepatocytes) was 0.08, the “CIDEC expression, RNA-seq result” value (hepatocytes) was 0.28 and the “CLDN1 expression, RNA-seq result” value (hepatocytes) was −0.05. The “COG1 expression, RNA-seq result” value (hepatocytes) was 0.17.
